system: Na+-dependent Cl-/HCO3- exchanger (NCBE); assay: Inhibition of the Na+-dependent Cl-/HCO3- exchanger (NCBE) in human endothelial cells (FLIPR, BCECF pHi recovery); assay type: cell-based; details: inhibitor concentration of 10 μM; human endothelial cells (ECV-304); 50 μM HOE 642 present
Experimental: Inhibition of the Na^+ -dependent Cl^- /HCO3^- exchanger (NCBE) in human endothelial cells
Human endothelial cells (ECV-304) were detached from culture flasks with the aid of trypsin/EDTA buffer (0.05/0.02% in phosphate buffer) and, after centrifugation (100 g, 5 min), taken up in a buffered salt solution (mmol/l: 115 NaCl, 20 NH4 Cl, 5 KCl, 1 CaCl2, 1 MgSO4, 20 N-(2-hydroxyethyl)-piperazine-N'-2-ethanesulfonic acid (HEPES), 5 glucose and 1 g/l of bovine serumalbumin; pH 7.4). This cell suspension was incubated at 37° C. for 20 min with 5 μM BCECF acetoxymethyl ester. The cells were then washed and resuspended in a sodium- and bicarbonate-free buffer solution (mmol/l: 5 HEPES, 133.8 choline chloride, 4.7 KCl, 1.25 MgCl2, 0.97 K2 HPO4, 0.23 KH2 PO4, 5 glucose; pH 7.4).
The subsequent fluorescence measurement in the FLIPR (Fluorescent Imaging Plate Reader), 100 μl of this cell suspension in each case containing 20000 cells were added by pipette per well of a 96-well microtiter plate and this microtiter plate was centrifuged (100 g, 5 min).
In the FLIPR, 100 μl of buffer solution in each case were then removed from a further prepared microtiter plate and added by pipette to each of the 96 wells of the measuring plate. In this case, for a 100% control, i.e. a recovery of the intracellular pH (pHi) by means of the NCBE, a bicarbonate- and sodium-containing buffer solution (mmol/l: 5 HEPES, 93.8 NaCl, 40 NaHCO3, 4.7 KCl, 1.25 CaCl2, 1.25 MgCl2, 0.97 Na2 HPO4, 0.23 NaH2 PO4, 5 glucose; pH 7.4) which contained 50 μM HOE 642 was used. For a 0% control, i.e. no pHi recovery at all, a bicarbonate-free, sodium-containing buffer solution (mmol/l: 5 HEPES, 133.8 NaCl, 4.7 KCl, 1.25 CaCl2, 1.25 MgCl2, 0.97 Na2 HPO4, 0.23 NaH2 PO4, 5 glucose; pH 7.4) to which 50 μM HOE 642 were also added was employed. The compounds of the formula (I) according to the invention were added in various concentrations of the sodium- and bicarbonate-containing solution.
After addition of the buffer solutions to the dye-loaded acidified cells situated in the measuring plate,the increase in the fluorescence intensity which corresponded to an increase in the pHi was determined in each well of the microtiter plate. The kinetics were in this case recorded at 35° C. over a period of 2 minutes.
The increase in the fluorescence intensities for different concentrations of the compounds according to the invention was related to the two controls and from this the inhibitory action of the substances was determined.

Going from `N#CNS(=O)(=O)c1ccccc1-c1ccc(/C=C\C2CCCCC2)cc1` [Example 8, cis-4'-(2-Cyclohexylvinyl)biphenyl-2-sulfonylcyanamide] to `N#CNS(=O)(=O)c1ccccc1-c1ccc(/C=C/C2CCCCC2)cc1` [Example 9, trans-4'-(2-Cyclohexylvinyl)biphenyl-2-sulfonylcyanamide], the “Residual activity of the NCBE” value falls from 13.4% to 12.8%.

Compared with `N#CNS(=O)(=O)c1ccccc1-c1ccc(/C=C\c2ccccc2)cc1` [Example 5, cis-4'-Styrylbiphenyl-2-sulfonylcyanamide], `N#CNS(=O)(=O)c1ccccc1-c1ccc(/C=C/c2ccccc2)cc1` [Example 6, trans-4'-Styrylbiphenyl-2-sulfonylcyanamide] is lower in “Residual activity of the NCBE” value: 21.2% for the first, 19.3% for the second.

Going from `N#CNS(=O)(=O)c1ccccc1-c1ccc(C=C2CCCC2)cc1` [Example 3, 4'-Cyclopentylidenemethylbiphenyl-2-sulfonylcyanamide] to `N#CNS(=O)(=O)c1ccccc1-c1ccc(C=C2CCCCC2)cc1` [Example 1, 4'-Cyclohexylidenemethylbiphenyl-2-sulfonylcyanamide], the “Residual activity of the NCBE” value rises from 29.4% to 68.4%.

Compared with `N#CNS(=O)(=O)c1ccccc1-c1ccc(CCC2CCCCC2)cc1` [Example 10, 4'-(2-Cyclohexylethyl)biphenyl-2-sulfonylcyanamide], `N#CNS(=O)(=O)c1ccccc1-c1ccc(CC2CCCCC2)cc1` [Example 2, 4'-Cyclohexylmethylbiphenyl-2-sulfonylcyanamide] is higher in “Residual activity of the NCBE” value: 24.3% for the first, 51.6% for the second.

Compared with `N#CNS(=O)(=O)c1ccccc1-c1ccc(CCc2ccccc2)cc1` [Example 7, 4'-Phenethylbiphenyl-2-sulfonylcyanamide], `N#CNS(=O)(=O)c1ccccc1-c1ccc(C=C2CCCCCC2)cc1` [Example 4, 4'-Cycloheptylidenemethylbiphenyl-2-sulfonylcyanamide] is lower in “Residual activity of the NCBE” value: 64.2% for the first, 30.5% for the second.

From patent publication US5968978A, “Biphenylsulfonylcyanamides, process for their preparation, and their use as medicament” (Hoechst Marion Roussel Deutschland, priority 1997, dated 1999)
